These are literature values, as cited in patent US4374828A, “Biologically active thymones from the thymus” (Board of Reagents, The University of Texas System, priority 1980, dated 1983).

In one series the test system is murine prothymocytes. The conditions noted are these: in vitro.
Series [1] concerns cells which had a B-lineage. The following applies: in vitro.

Turning to “thymopoietin: a preparation of thymopoietin”, the “Immune function of spleen cells (in words)” value in the series on spleen cells of old mice is reported as “increased the immune function of the spleen cells of old mice”.

Consider “(H) Arg^32 -Lys^33 -Asp^34 -Val^35 -Tyr^36 -OH [pentapeptide]”, for which the “Differentiation of prothymocytes to thymocytes (in words)” value in the series with murine prothymocytes is “induced, in vitro, differentiation of murine prothymocytes to thymocytes”. The “Differential induction of B-lineage cells (in words)” value in series [1] is “inhibited, in vitro, the differential induction of cells which had a B-lineage”.

For “NH2 -Ser-Glu-Phe-Leu-Glu^5 -Asp-Pro-Ser-Val-Leu^10 -Thr-Lys-Glu-Lys-Leu^15 -Lys-Ser-Glu-Leu-Val^20 -Ala-Asn-Val-Thr^25 -Leu-Pro-Ala-Gly-Glu^30 -Gln-Arg-Lys-Asp-Val^35 -Tyr-Val-Gln-Leu-Tyr^40 -Leu-Gln-Thr-Leu-Thr^45 -Ala-Val-Lys-Arg^49 -COOH (H-SEFLEDPSVLTKEKLKSELVANVTLPAGEQRKDVYVQLYLQTLTAVKR-OH) [thymin II, polypeptide of bovine thymin, renamed thymopoietin II]”, in the series with marrow cells, the “Induction of marrow cells (in words)” value is recorded as “induce marrow cells to develop as intrathymic lymphocytes”.
